Data on three molecules can be found in paper PMC10072296, “A Novel CCK Receptor GPR173 Mediates Potentiation of GABAergic Inhibition” (The Journal of Neuroscience, 2023).

Experiment [1] has as its system GPR173. The experiment in a line: Cell surface binding assay, Flag-GPR173. Also noted: species or system human. The following applies: transfected HEK293T cells; HHBS with 20 mM HEPES, pH 7.4, 30 min, room temperature; Fanti-HA/Fanti-Flag, confocal; n = 33-40 cells, three independent experiments. As to the method: (§1) We transfected HEK293T cells with pCDNA3.1(+)-Flag-GPCR (purchased from Public Protein/Plasmid Library or made in our laboratory based on a pCDNA3.1(+) backbone). […] After three washes with HHBS, cells were fixed in 4% paraformaldehyde (PFA) and 4% sucrose in PBS for 15 min at room temperature. Cells were blocked in 5% normal goat serum in PBS, and staining was performed in detergent-free conditions without cell permeabilization after three washes by PBS. We used primary antibody rabbit anti-HA (catalog #8146, Cell Signaling Technology), anti-GPR173 (catalog #PA5-50 976, Thermo Fisher Scientific), and mouse anti-Flag (catalog #3724, Cell Signaling Technology) to detect HA and Flag tags. Images were captured on a Leica SP8 confocal microscope. Images within each experiment were collected using identical laser power, offset, and gain.

Experiment [2] relates to CCK2R. Nature of the experiment: Cell surface binding assay, Flag-CCK2R. Also noted: species or system human. The following applies: transfected HEK293T cells; HHBS with 20 mM HEPES, pH 7.4, 30 min, room temperature; anti-HA/anti-Flag immunofluorescence, confocal; n = 33-40 cells, three independent experiments. As to the method: as §1
Experiment [3] has as its system HTR1B. The experiment in a line: Cell surface binding assay, Flag-HTR1B. Also noted: species or system human. The following applies: transfected HEK293T cells (negative/background control); HHBS pH 7.4, 30 min, room temperature; confocal. As to the method:
as §1

For experiment [4], the target named is T1, GPR173 (CHO-GPR173 cells) (Homo sapiens, UniProt Q9NS66).
T1 construct: expressed in transfected cells; host or cells: CHO cells, lentiviral infection (pLVX-puro-GPCR), puromycin selection, monoclonal line
T1 sequence (Q9NS66 whole entry): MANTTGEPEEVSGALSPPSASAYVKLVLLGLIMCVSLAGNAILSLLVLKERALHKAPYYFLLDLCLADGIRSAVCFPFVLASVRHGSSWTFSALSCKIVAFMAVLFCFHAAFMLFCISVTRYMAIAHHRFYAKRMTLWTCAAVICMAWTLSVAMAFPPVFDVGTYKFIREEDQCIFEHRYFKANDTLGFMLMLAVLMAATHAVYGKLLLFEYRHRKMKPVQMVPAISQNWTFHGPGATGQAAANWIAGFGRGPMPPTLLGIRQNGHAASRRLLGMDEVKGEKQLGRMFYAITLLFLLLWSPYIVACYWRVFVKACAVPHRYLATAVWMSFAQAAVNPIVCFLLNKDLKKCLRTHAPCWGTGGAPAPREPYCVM
The experiment in a line: Ca2+ imaging assay in CHO-GPR173 cells. It is filed as cell-based.
Protocol: CHO and infected CHO cells (CHO-GPCRs) were cultivated at 37°C in a humidified atmosphere with 5% CO2 in DMEM/F-12 medium (Thermo Fisher Scientific) supplemented with 10% FBS (Natocor Industria Biológica).
For Ca^2+ mobilization by a confocal microscope, ∼8 × 10^4 transfected cells were seeded in each well of an eight-well chambered cover glass (Thermo Fisher Scientific) the day before the Ca^2+ imaging assay. Then, 5 μM Fluo-8 (AAT Bioquest) dissolved in HHBS solution was incubated with the cells for 30 min in a cell incubator and 30 min at room temperature after removing the culture medium. These cells were washed three times with HHBS, and 360 µl HHBS was added. Subsequently, images of these cells were captured by a Zeiss 710 nonlinear optical confocal microscope before and after being treated with 10× compounds or HHBS solution.
Cells were cultured at 37°C, and 5% CO2 in DMEM/F-12 medium (Thermo Fisher Scientific) containing 10% FBS (Natocor Industria Biológica) and washed with DMEM/F-12 medium once after overnight incubation.

Experiment [5] deals with IPSCs of pyramidal neurons in auditory cortex (AC) brain slices. The experiment in a line: In vitro patch-clamp recording of laser-evoked IPSCs in pyramidal neurons. The following applies: devazepide 60 nM in bath solution, brain slices from mDlx-DIO-ChR2-mCherry-injected CCK-Cre mice.
Description: For brain slice recording experiments, we injected rAAV9-mDlx-DIO-ChR2-mCherry-WPRE-pA (5.18E + 12 vg/ml; BrainVTA) into the AC of CCK-Cre and PV-Cre mice.
In the in vivo brain slice recording experiments, we adopted a protective cutting and recovery method to prepare acute brain slices from CCK-Cre, PV-Cre, CCK-KO, and CCK1R/2R-KO mice to achieve a higher success rate for patch clamping, as previously described ([Chen et al., 2019]). […]
We performed whole-cell recordings with a MultiClamp 700B amplifier and Digital 1440A digitizer (Molecular Devices) targeting the AC in the brain slices in room temperature aCSF containing the following (in mM): 119 NaCl, 2.5 KCl, 1.25 NaH2PO4, 24 NaHCO3, 12.5 glucose, 2 CaCl2·4H2O, and 2 MgSO4·7H2O, ∼25°C). […] We recorded IPSCs in response to the laser stimulation (1 pulse per 15 s, 5 ms in duration) under voltage-clamp recording mode (holding at −60 mV to −50 mV) for 5 min as the baseline before and for 25 min after HFLS or LFLS. […] For the normalization of recorded IPSCs in the CCK-Cre, PV-Cre, CCK-KO, and CCK1R/2R-KO mice, we selected only patched neurons with IPSCs >35 pA.

As usually defined, the IC50 is the point on the concentration scale where inhibition reaches its midpoint.

On to “HA-tagged CCK8s: HA-(ε-Ahx)2-CCK variant probe of CCK8s”, for which the “Binding to Flag-GPR173” value in experiment [1] is recorded as “could only bind to HA-tagged CCK8”. The “Binding to Flag-CCK2R (Fanti-HA/Fanti-Flag)” value in experiment [2] is “significantly larger ratio of CCK ligand HA-tag signal to CCK2R Flag signal (Fanti-HA/Fanti-Flag) than that of the HA-(ε-Ahx)2 control group”. In addition, the “Binding to Flag-HTR1B” value in experiment [3] is on record as “No binding”.

With `CN1C(=O)[C@@H](NC(=O)c2cc3ccccc3[nH]2)N=C(c2ccccc2)c2ccccc21` [devazepide], the “Antagonistic action on GPR173, rank” value in experiment [4] (CHO-GPR173, 10 nM CCK8s, compared with loxiglumide, YF476 and L365,260) is given as “highest antagonistic action on GPR173”. Moreover, in experiment [4] (read-out: IC50, antagonism of CCK8s-induced Ca2+ response), the concentration for half-maximal inhibition (IC50) turned out to be 12.3 nM. In experiment [5], the “Block of HFLS-induced potentiation of IPSCs” value is listed as “fully blocked the HFLS-induced potentiation of IPSCs”.

Regarding “HA-tagged CCK8ns: HA-(ε-Ahx)2-CCK variant probe of nonsulfated CCK8”, the “Binding to Flag-GPR173” value in experiment [1] was “not HA-tagged CCK4 or CCK8ns”. For the same molecule, the “Binding to Flag-CCK2R (Fanti-HA/Fanti-Flag)” value in experiment [2] was “significantly larger ratio of CCK ligand HA-tag signal to CCK2R Flag signal (Fanti-HA/Fanti-Flag) than that of the HA-(ε-Ahx)2 control group”. Further, the “Binding to Flag-HTR1B” value in experiment [3] was “No binding”.
